Results taken from ChEMBL document CHEMBL1150095, “Antitumor activity and stereochemistry of acetylenic alcohols from the sponge Cribrochalina vasculum” (1995).
Activity calls are given as the source filed them. The rule behind the calls is not given here.

Assays:
IGROV-1 = assay: Antitumor activity against human IGROV1 cells; format: functional
NCI-H522 = assay: Antitumor activity against human NCI-H522 cells; format: functional

Row | Compound | Activity (IGROV-1) | Activity (NCI-H522)
1 | C#C[C@@H](O)/C=C/CCCCCCCCCCCCCC(C)C | Active | Active
2 | C#C[C@@H](O)/C=C/CCCCCCCCC(C)CCCCCCCC (stereo partly drawn) | Active | Active
3 | C#C[C@@H](O)/C=C/CCCCCCCCCCCCCCCC | Active | Active
4 | C#C[C@@H](O)/C=C/CCCCCCCCCCC(C)CCCC (stereo partly drawn) | Active | Active
